One data set has as its system colon descendens. In words: Temperature increase in ligated colon segment (sample versus reference segment). It is filed as in vivo, Guinea pigs. On the procedure: While animals are thermally unstable during narcosis special precautions had to be taken to overcome this problem. Guinea pigs (400 g, males) were fasted 12 hours before the experiment. Anaesthesia was induced by intraperitoneal injection of Ethylurethane (0.9 g.kg^-1). The guinea pig was fixed on a thermostated operation table, monitored by a thermosensible detector rectally applied. Heating was carried out by the operation table itself and two lamps located above the animal.
In the evacuated colon descendens two segments were localised. In both segments, later called sample- and reference segment small measuring electrodes were fixed, displaying continuously the absolute temperature until 0.001°C. Two other electrodes linked by a Wheatstone bridge connection were equally located in the two segments. They measure continuously the temperature difference between the two segments.
In both segments a smooth catheter (I.D. 0.3 mm) was fixed, winded several times in the intestinal cavity. In this catheters 100 µl of the reference- and sample solution was injected.
The intestinal cavity was sealed again. This set up enables the injection of solutes at body temperature. The animal was thermally isolated by gauge. After ten minutes, the wheatstone bridge was equilibrated. An injection of 100 µl air evacuates the catheters so injecting the solutions at perfect body temperature.
The electrodes displaying the absolute temperature were calibrated in a thermostatically controlled water bath between 36.0°C and 38.0°C. […] The electrodes measuring the temperature difference were calibrated by two thermostatically controlled water baths with temperature differences between 0.0°C and 2.0°C. The rectal temperature was directly monitored in °C.
• * reference solution: • Krebsolution - TRIS.HCl buffer 0.1 M pH 8.0 (9/1) osmotic pressure equals 0.9 % Sodium Chloride • * Sample solutions : • - Rhein saturated in reference solution.

Data set [1] deals with blood glucose level. In words: Hollow suppositories with insulin, blood glucose versus intramuscular injection (set up 2). In kind it is in vivo, rabbits. Particulars: uncoupler in suppository mass (3 mg, 3 mg, 1.5 mg); insulin in physiological saline.
Experimental: Therefore experiments were carried out on rabbits. Male rabbits were immobilised in a metal cage allowing free access to the anal region and the auricular arteries of both ears. In these experiments narcosis was not essential. The sampled blood volume was 0.5 ml.
Small hollow suppositories were made with dimensions ± 2 cm, φ 0.5 cm. The suppositories were filled with […] ™ (Novo Nordisk) 100 I.U./ml in the appropriate dilution with physiological saline. The anal region was secured with adhesive tape.
The following concentrations were used 0.1 I.U./kg body weight, 0.5 I.U./kg body weight, 1.0 I.U./kg body weight.
As the content of the suppository was approximately 0.6 ml, 450 µl (at the highest dose) of the Insulin solution was mixed with 150 µl normal saline.
For these experiments Insulin from bovine pancreas (activity 41.67 µg = 1 I.U.) Fluka was solved in 0.6 ml bidistilled water. The experiment was carried out as outlined above.
Data set [2] relates to paracellular permeability. In words: 99mTc-EDTA transfer from ligated colon segment to kidneys/urine bladder (mucosal permeability). It is filed as in vivo, Guinea pigs. To be noted: for colonic permeability: 99mTc-EDTA in ligated colon segment, one hour, Fig. 2 / Fig. 3; for transfer from lumen to blood of 99mTc-EDTA: after previous administration of the uncoupler. The protocol: Guinea pigs of either sex (250-280 g) were fed for one week with pelleted food containing 0.1% 1,8 dihydroxyanthraquimone. For this purpose the necessary amount of Anthraquinone was solved in ether and sprayed over the pelleted foods. The ether was evaporated. The calculated daily administration of 1,8 dihydroxyantraquinone was 20 mg.
The animals were fasted 6 hours before the experiment in order to empty the proximal colonic segment.
Anaesthesia was induced by peritoneal injection of ethyl urethane (0.9 g.kg^-1) and body temperature was maintained at 37°C by a thermostatically controlled heated table.
A midventral abdominal incision was made and the large intestine exposed.
In this ligated colon segment 0.25 ml ^99mTcEDTA was injected. Immediately the abdominal cavity was closed.
The biodistribution of the labelled complex was visualised by a γ-camera Pho/GAMMA®HP-Nuclear; Chicago fitted with a low energy ([…]) convergating collimator.
After one hour the guinea pigs were killed with chloroform and both kidneys, the ligated colon segment and the liver were isolated. Urine was collected from the urine bladder using a syringe. The activity of the samples was measured by a Gamma-counter (Berthold, Gamma-sample changer BF 5300) positioned on 140 ± 10 keV.
In order to determine the influence of the salicylic acid and dinitrophenol on mucosal permeability, 0.25 ml of salicylic acid was injected in the ligated colon segment of untreated animals. After an exposure time of 30 minutes the labelled ^99mTc-EDTA-complex was injected. The procedure continued as described for 1,8 dihydroxyantraquinone.
The instant kit method of Eckelman and Richards (J. Nucl. Med. 11, 761(1970)) was modified. 5.0 mg of Na2EDTA and 0.5 mg of snCl2.2H20/ml was filtered through a 0.22 µ membrane filter and conserved in 3 ml vacuum serum tubes. The kits were kept at -20°C.
Prior to the experiment 1 ml sterile eluate of a ^99mTc-generator (Sterow™ 99m Byk-Malincrodt) with an activity of 2-10 µ Ci was added to the thawed kit. After mixing the efficiency of the complex formulation was assessed by paper chromatography (Whatman N° 1) using physiological water and methylethylketone as mobile phase. Detection was made with a Berthold Scanner. More than 98% of the present ^99mTc was complexed.
100 mg salicylic acid or dinitrophenol was solved in bidistilled water. Sodium hydroxide N was added until complete dissolution. pH was adjusted on 8.5. Water was added to a volume of 10 ml. Osmolarity was adjusted (275 mOsm/1) by adding 23 and 14 mg sodium chloride respectively.

Data set [3] has as its system blood glucose level. In words: Rectal perfusion of insulin, blood glucose versus intramuscular injection (set up 1). In kind it is in vivo, guinea pigs and rats. Particulars: uncoupler added to perfusion, total concentration 0.5 mg. The protocol:
The resorption of Insulin has been monitored by the lowering of the blood glucose level versus an intramuscular injection of an equivalent dose. Glucose was monitored while the determination is simple and inexpensive. However, on several experiments the Insulin level was measured by RIA (Radio Immuno Assays) methods.
Initially the resorption of Insulin was monitored following a perfusion on anaesthetised animals. Anaesthesia was induced by abdominal injection of Ethylurethane (0.9 g/kg).
The circulating solution was principally isotonic Sodium chloride (physiological saline) to which the appropriate Insulin was added in order to obtain the required concentrations.
The used Insulin was […]™ (Novo Nordisk); Human Biosynthetic Insulin.
The perfusion itself was executed on a new developed manner in order to allow a perfusion without an operation. Blood was sampled on the jugular vein.
The device used allows an easy rectal application. It allows an exact positioning and an identical length of perfused colon.
The total circulating fluid was 8 ml. As tubing Isoversinic was used. At intervals 50 µl blood was sampled and used for the glucose determinations. These perfusion experiments were carried out on guinea pigs and rats. […]

The subject of a further data set is paracellular route. In words: Blockade by TAP of the 1,8-dihydroxyanthraquinone-increased mucosal permeability (99mTc-EDTA). In kind it is in vivo, Guinea pigs. Particulars: TAP 80 mM pH 6.0 followed by 99mTc-EDTA; Fig. 4; p < 0.01. The protocol: 2,4,6-Triaminopyrimidine (TAP) was used to block the paracellular way. If the resorption of a non resorbable molecule ^99mTc-EDTA complex was enhanced by the addition of a mitochondrial uncoupler and blocked by TAP, then the route followed by the ^99mTc-EDTA complex was unequivocally identified as the paracellular one.
The same materials and methods were used as described in Example 1. However, instead of ^99mc-EDTA TAP was used followed by ^99mTc-EDTA.
100 mg TAP was solved in bidistilled water. The pH was adjusted to 6.0 with HCl 2 N and completed to 10.0 ml. Final concentration was 80 mM. To obtain a physiological osmolarity 16 mg sodium chloride was added.

Data set [4] concerns junctions of the colonic mucosa. In words: Blockade of the paracellular route by anti-diarrhoeal drugs (99mTc-EDTA transfer lumen to blood). It is filed as in vivo. Particulars: in combination with DHA; Fig. 5.
In the next data set the test system is isolated mitochondria. In words: Generation speed of ATP in isolated mitochondria (Luciferin-Luciferase). Particulars: 20 µl Loperamide HCl (5 mg/80 ml water); increasing concentrations DHA; N=15; Fig. 8. It is filed as biochemical, Phaseolus aureus. On the procedure:
Mitochondria were isolated from Phaseolus aureus. Beans were allowed to sprout at 28°C during 5 days in the dark. 40 g sprouts were used.
The plant material was homogenised at 3°C with a solution of 0.3M Mannitol, 1 mM Na2EDTA, 0.1% BSA, 0.05% Cysteine. The pH was adjusted to 7.2
During homogenisation 6 N KOH was added to keep the pH at 7.2.
The suspension was centrifuged at 2°C (2000 x g for 15 minutes). The pellet was removed and the supernatant centrifuged again during 20 minutes (8000 x g). The pellet was carefully resuspended in 1 ml of a solution (reaction medium) with 0.3M Mannitol, 10mM phosphate buffer, 10mM KCl, 5mM MgCl2, 0.1% BSA. The pH was adjusted at 7.2.
Mitochondrial quality was assessed by measuring the formation speed of ATP following a ADP injection. ATP was measured by L-Luciferin-Luciferase light emission in the LKB-Luminometer.
The measurement of ATP was carried out in a medium consisting of a 1/1 mixture of reaction medium and Luciferin-Luciferase buffer. The complex composition is : • 200 µl Luciferin-Luciferase solution • 400 µl TRIS.HCl 0.05 M - EDTA 2 mM pH 7.75 • 400 µl reaction medium as explained above • 20 µl mitochondrial suspension • 10 µl Succinate 10 mM pH 7.7 • 20 µl Loperamide HCl (5 mg/80 ml water) or water depending on the experimental set up 1,8 dihydroxyanthraquinone was used in a concentration of 2 mg/100 ml methanol.

The next data set deals with large intestine. In words: Colon perfusion: secretory effect of rhein (water, sodium, K+) and its antagonism. In kind it is in vivo.
In data set [5] the test system is monocellular mucosal layer of the guinea-pig colon. In words: ATP content of lyophilised colon mucosa (firefly bioluminescence). In kind it is in vivo, Guinea pigs. Particulars: 3.76 mg rhein in ligated colonic segment. On the procedure:
The ATP content was measured in the monocellular mucosal layer of the guinea-pig colon.
Guinea pigs with a weight (mean ± 400 g) were fasted 12 hours before the experiments. Anaesthesia was induced by intraperitoneal injection of Ethylurethane (0.9 g.kg^-1).
The segment was filled with 4.0 ml of the solution to be tested. The intestinal cavity was immediately sealed again. After the experiment the colon segment was removed and submerged in liquid Nitrogen. The gut specimen was transferred to the precooled lyophylisator (-80°C, sample -20°C) and lyophilised during 36 hours. Microscopically, the mono cellular mucosa layer was scraped off. One segment, proceeding this way normally yield 1.5 - 2.0 mg lyophilised mucosa cells. 1.000 mg mucosa was weighted carefully on a microbalans and homogenised with 100.00 mg lactose. The ATP level was measured on 3.000 mg of this mixture.
ATP was measured following the firefly-bioluminescence system on a LKB Wallac 1250, fitted with a 1250 display. […]
For the blank experiment 200 µl Luciferine-Luciferase solution was mixed with 500 µl TRIS-EDTA buffer solution. The light emission was measured following the addition of standard amounts of ATP.
3.000 mg of the mucosa/lactose mixture was suspended in 800 µl TRIS-EDTA buffer solution. […] Known quantities of ATP were added.

Data set [6] is described as follows: Saturation concentration in reference solution. To be noted: krebs - tris.hcl buffer, pH 8, aqueous buffer.
[7] abbreviates: 100 µl saturated solution in colon segment versus reference segment, Fig. 10.

Values after ≈ are worked out from the molar mass of the structure shown.

Usually solubility stands for the concentration that dissolves in the medium under given conditions. Low readings indicate a poorly soluble substance, high ones a readily soluble substance.

On to `O=C1c2cccc(O)c2C(=O)c2c(O)cccc21` [1,8-dihydroxyanthraquinone], for which the temperature rise with colon descendens (setting [7]) stood at 0.70 °C. Further, in the data set with blood glucose level [1], the “blood glucose fall, of the effect obtained after intramuscular injection of an identical dose” value (“blood glucose fall” for short) is given as around 50%. In data set [2], the colonic permeability result is “remarkable increase of colonic permeability” and the “transfer from lumen to blood of 99mTc-EDTA” value is on record as “significantly enhanced”. The “radioactivity leaked from the colon and concentrated in the urine bladder” value in [2] (one hour after administration of the radioactive complex, 0.1% in food for one week) was around 25%.
With `COc1ccc2c(c1)c(CC(=O)O)c(C)n2C(=O)c1ccc(Cl)cc1` [Indomethacin], the “blood glucose fall” value with blood glucose level [1] was around 50%. For the same molecule, the “Insulin absorption, of the effect obtained after an intramuscular injection” value in the data set with blood glucose level [3] is given as around 44%.
As for `Nc1cc(N)nc(N)n1` [TAP, 2,4,6-Triaminopyrimidine], in the data set on paracellular route, the “mucosal permeability following a 1,8-dihydroxyanthraquinone administration” value is listed as “nearly completely restored”.
As for `CN(C)C(=O)C(CCN1CCC(O)(c2ccc(Cl)cc2)CC1)(c1ccccc1)c1ccccc1` [loperamide], the “transfer of 99mTc-EDTA complex from lumen to blood” value in data set [4] is given as “no longer transferred from lumen to blood”. In addition, the “effect on temperature rise following DHA administration” value in the data set with colon descendens (guinea pig, in vivo) is listed as “antagonises the temperature rise”. The “protection against uncoupling effect of DHA on generation speed of ATP” value with isolated mitochondria is “protects mitochondria in vitro against the uncoupling effect of anthraquinones”.
On to `CN1CC[C@]23c4c5ccc(O)c4O[C@H]2[C@@H](O)C=C[C@H]3[C@H]1C5` [morphine], for which, in the data set with large intestine (in vivo), the “K+ concentration” value was “completely antagonised”; the “effect on the secretory effect of rhein” value was “counteracted the secretory effect of rhein”; the “effect on the secretory effect of rhein, prior perfusion” value was “protects the large intestine from the secretory effect of rhein”.
Take `O=C(O)c1cc(O)c2c(c1)C(=O)c1cccc(O)c1C2=O` [rhein]: the temperature rise in the data set on colon descendens (setting [7]) stood at 0.36 °C. Moreover, in [5] (after 60 minutes), the “initial ATP concentration recovered” value is listed as 67.1%. Moreover, in data set [5] (after 90 minutes), the “initial ATP concentration remaining” value was 35.9%. Further, the “blood glucose fall” value in the data set on blood glucose level [1] is around 50%. Further, the “Insulin absorption, of the effect obtained after an intramuscular injection” value in the data set with blood glucose level [3] was around 44%. The same molecule registered a solubility in data set [6] of 0.952 µg/mL (≈ 3.35 µM).
In the case of `O=C(O)c1ccccc1O` [salicylic acid], in the data set with colon descendens (other tested mitochondrial uncouplers), the “temperature rise” value was “show the same results”. Moreover, in data set [2], the colonic permeability result is recorded as “similar, although less pronounced effect” and the “transfer from lumen to blood of 99mTc-EDTA” value is “significantly enhanced”.
With trigalloylglucose, the “effect on the secretory effect of rhein” value with large intestine (perfused after rhein or together with rhein, Fig. 6, Fig. 7) is listed as “inhibit completely the secretory effect of rhein”.

Source of the values: patent EP0938338B1, “CARRIER COMPOSITION FOR INFLUENCING THE TIGHT JUNCTION PERMEABILITY” (Ghyssaert, Joris Rosa Michael, priority 1996, dated 1998).
